One assay concerns Escherichia coli. Description: static biofilm assay on antimicrobially finished silicone surfaces (cfu/cm^2). As to conditions: silicone surface, after intensive washing. It counts as cell-based. Here is the method:
(§1) The effect of the antimicrobial finishing of the investigated surfaces was determined by means of a […] biofilm assay. For this, the surfaces to be tested were cut into round disks which fit into the holes of 24-well microtiter plates. In order to prevent the surfaces from slipping during the assay, the surfaces were immobilized on the bottom of the microtiter plates with the help of glass joint grease. The formation of biofilms was carried out starting from a preculture. For this, 20 ml of the standard commercial TSBY medium (Difco Laboratories, MI, USA) were inoculated with the help of a steady-state overnight culture of Staphylococcus epidermidis DSM1798, Escherichia coli DSM 5698, Proteus mirabilis DSM 4479 or Escherichia coli BL21 (DE3) with an optical density of 0.1. The preculture was incubated for 2 to 4 hours with agitation (at 200 rpm) and 37° C. until an optical density of from 2 to 3 was reached. In order to start the biofilm assay, the preculture was diluted to an optical density of 0.0004 in 5% TSBY in saline (0.9% NaCl) (ca. 10^5 cfu/ml). 1 ml of this was placed onto the surfaces in the 24-well plate and then incubated at 37° C. with gentle vibration at 50 rpm (revolutions per minute), so that a biofilm could form on the surface. The biofilm on the surfaces was analyzed after one hour (1 h) and after 24 hours (24 h) (and optionally 5 hours). For this, the planktonic cells were removed. The surfaces were then removed from the microtiter plate and briefly washed in sodium chloride solution, saline (0.9% NaCl). The adherent cells in the biofilm were then detached from the surface by means of an ultrasound treatment. For this purpose, the surfaces were transferred to a Falcon tube (50 ml volume) with 2 ml of saline and subjected to ultrasound for five minutes in an ultrasound water bath. The resulting bacterial suspension was diluted and plated out on TSBY agar plates. After 18 hours at 37, the resulting colonies were counted and back-calculated to the number of cells on the surface.

Assay [1] has as its system Staphylococcus epidermidis DSM1798. Described as above. It is filed as cell-based. The note with it: silicone surface, conjugates adsorbed alone from 10 mg/ml (P18 equivalents) in PBS; after washing. The procedure:
as §1

Where no end group is shown, it is not given here.

Take “PEI-P18 conjugates: polyethyleneimine (25 KDa) activated with SMCC and reacted with P18cys (KWKLFKKIPKFLHLAKKFC; SEQ ID NO: 27) (also: conjugated to polyethyleneimine (25 kDa) via SMCC)”: the “biofilm formation by E. coli” value was “not retained on the surface so strongly that after intensive washing enough active ingredient is present to prevent biofilm formation” in the assay with Escherichia coli (conjugates adsorbed alone from 10 mg/ml (P18 equivalents) in PBS) and “effective even after intensive washing” in the assay on Escherichia coli (two-step method: hydrophobin A coating (0.5 mg/ml), then conjugates 10 mg/ml (P18 equivalents) in PBS). Besides, in assay [1], the “formation of a biofilm due to S. epidermidis” value is recorded as “able to prevent the formation of a biofilm”.

These data come from patent US20120094007A1, “METHOD FOR THE IMMOBILIZATION OF CATIONIC ACTIVE INGREDIENTS ON SURFACES” (BASF SE, priority 2010, published 2012).
